Where “and” joins values, the source holds several entries; their conditions need not be identical. Equal entries are not always repeated.
System: 422866-222-R5-J1-PDC complex spheroids viability
Assay: Anticancer human tumor 422866-222-R5-J1-PDC patient-derived pancreatic adenocarcinoma cell line growth inhibition [RAS]
Conditions: for viability, T/C: stronger effect = lower value
Text: RAS pathway inhibitors in Combinations in Complex Spheroids
A high-throughput screen of multi-cell type tumor spheroids was designed to identify active combinations of RAS pathway inhibitors and targeted small molecules. Complex spheroids include a stromal component modeled by human endothelial cells (HUVEC) and fibroblasts modeled by human mesenchymal stem cells (MSCs). The concentration ranges selected for each drug and investigational agent were based upon clinically achievable concentrations if the clinical Cmax of the agent was known.
Compounds. The drugs and investigational agents: abemaciclib (NSC768073), cobimetinib (NSC768068), divarasib (GDC6063, NSC841802), docetaxel (NSC628503), GDC-1971 (RLY-1971, NSC841576), gemcitabine (NSC613327), inavolisib (NSC800729), ipatasertib (NSC767898), KB-0742 (NSC834161), MRTX-1133 (NSC836407), osimertinib (NSC779217), RMC-4630 (NSC839698), RMC-6236 (NSC851965), RMC-6291 (NSC852671), Ro-3306 (NSC812927), sapanisertib (NSC764658), SN-38 (NSC673596), staurosporine (NSC755774), SY5609 (NSC837396), and tovorafenib (DAY101, NSC766906), were obtained from the National Cancer Institute (NCI) Developmental Therapeutics Program Chemical Repository. The FDA-approved anticancer drug set is available from the NCI Developmental Therapeutics Program. […] The stock solutions were prepared in dimethyl sulfoxide (DMSO, Sigma-Aldrich, St. Louis, MO, cat. D2650) at 800-fold the tested concentration and stored at -70 degrees C prior to their use. All drugs and investigational agents were tested over a range starting from a high concentration at or near the clinical Cmax and decreasing in half-log increments. If the clinical Cmax for an agent had not been determined, the highest concentration tested was 10 microM.
Cell Culture. All cells were maintained in an incubator at 37 degrees C and 5% CO2 with 95% humidity. The PDC lines were cultured according to standard operating procedures established by the NCI PDMR. All PDCs were thawed and cultured in Matrigel-coated flasks prepared with a working solution of 1X Ham's F-12 nutrient mix, without supplementation (Invitrogen, Waltham, MA, cat. 11765054), 100 U/mL penicillin-streptomycin (Invitrogen, cat. 15140122), and 2.5% Matrigel (Corning Inc., Corning, NY, cat. 354248) for the first three passages. The 362531-283-R-J2-PDC and 782815-120-R-J1-PDC lines were cultured in 6C/Colon 1B media, which includes advanced DMEM/F-12 (Thermo Fisher Scientific, cat. 12634028), 10 mM HEPES (Thermo Fisher Scientific, cat. 15630080), 1X GlutaMAX supplement (Thermo Fisher Scientific, cat. 35050061), 0.1 mg/mL primocin (InvivoGen, San Diego, CA, cat. ant-pm-2), 10% defined fetal bovine serum, heat inactivated (HyClone Laboratories Inc., Logan, UT, cat. SH30070.03HI), 50% L-WRN conditioned media (ATCC, cat. CRL-3276), 1.25 mM N-Acetyl-L-cysteine (Sigma-Aldrich, cat. A9165), 10 mM nicotinamide (Sigma-Aldrich, cat. N0636), 1X B-27 supplement (Thermo Fisher Scientific, cat. 17504044), 1X N-2 supplement (Thermo Fisher Scientific, cat. 17502048), 50 ng/mL human EGF (Thermo Fisher Scientific, cat. PHG0311), and 10 microM Y-27632 dihydrochloride (Tocris Bioscience, cat. 1254). The K12877-001-R-J1-PDC line was cultured in 6I media, which includes all 6C/Colon 1B media plus 10 ng/mL human FGF-10 (PeproTech, cat. 100-26), 1 ng/mL human FGF-2 (PeproTech, cat. 100-18B), 1 µM prostaglandin E2 (Tocris Bioscience, cat. 2296), […] hydrocortisone (Sigma-Aldrich, cat. H4001), and […] bovine insulin (Sigma-Aldrich, cat. I6634). The K86415-001-R-J1-PDC line was cultured in 6D media, which includes all 6C/Colon 1B media components minus the L-WRN conditioned media. The 485176-168-R4-J1-PDC was cultured in PANC media, which includes all 6C/Colon 1B media plus 100 ng/mL human FGF-10 (PeproTech, cat. 100-26), 500 nM SB-431542 (Selleckchem, cat. S1067), and 10 nM gastrin (Tocris Bioscience, cat. 3006). […]

[1] = compound alone, run of 05/20/2024
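Note: spheroids exposed to compounds for 7 days.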
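Throughout, for viability, T/C: 100% = DMSO vehicle control viability.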

| Structure (SMILES) | viability, T/C (compound 0.00316 µM) | viability, T/C (compound 0.0316 µM) | viability, T/C (compound 0.1 µM) | viability, T/C (compound 0.316 µM) | viability, T/C (compound 1 µM) | IC50 (curve of compound) | viability, T/C (compound 0.000949 µM) | viability, T/C (compound 0.003 µM) | viability, T/C (compound 0.00949 µM) | viability, T/C (compound 0.03 µM) | viability, T/C (compound 0.3 µM) | viability, T/C (compound 0.0949 µM) | IC50 [1] [µM] | viability, T/C (compound 3.16 µM) | viability, T/C (compound 10 µM) | viability, T/C (compound 0.01 µM) |
| --- | --- | --- | --- | --- | --- | --- | --- | --- | --- | --- | --- | --- | --- | --- | --- | --- |
| CCN1CCN(Cc2ccc(Nc3ncc(F)c(-c4cc(F)c5nc(C)n(C(C)C)c5c4)n3)nc2)CC1 | 93% [middle of 4 runs] | 90.8% [middle of 4 runs] | 77.8% [middle of 4 runs] | 78% [middle of 4 runs] | 87.2% [middle of 4 runs] | > 1 µM | – | – | – | – | – | – | – | – | – | – |
| CCc1c2c(nc3ccc(O)cc13)-c1cc3c(c(=O)n1C2)COC(=O)[C@]3(O)CC | – | – | – | – | – | – | 77.2% [middle of 4 runs] | 51.2% [middle of 4 runs] | 51.5% [middle of 4 runs] | 53.4% [middle of 4 runs] | 41.4% [middle of 4 runs] | – | – | – | – | – |
| CCn1c(-c2cc(N3CCN(C)CC3)cnc2C(C)OC)c2c3cc(ccc31)-c1csc(n1)CC(NC(=O)C1CC1C)C(=O)N1CCCC(N1)C(=O)OCC(C)(C)C2 (stereo unspecified) | – | – | – | – | – | – | 29.7% [middle of 8 runs] | 22.6% [middle of 8 runs] | 19.6% [middle of 8 runs] | 20.2% [middle of 8 runs] | 21.7% [middle of 8 runs] | 23% [middle of 8 runs] | < 0.000949 | – | – | – |
| CCn1c(-c2cccnc2C(C)OC)c2c3cc(ccc31)N1CCOC(CC(NC(=O)C(C(C)C)N(C)C(=O)C3(F)CCN(C(=O)C#CC(C)(C)N(C)C)CC3)C(=O)N3CCCC(N3)C(=O)OCC(C)(C)C2)C1 (stereo unspecified) | – | – | – | – | – | – | 25.9% [middle of 8 runs] | 23.3% [middle of 8 runs] | 21.9% [middle of 8 runs] | 22.1% [middle of 8 runs] | 20.2% [middle of 8 runs] | 22.5% [middle of 8 runs] | < 0.000949 | – | – | – |
| C[C@@H](NC(=O)c1ncnc(N)c1Cl)c1ncc(C(=O)Nc2cc(C(F)(F)F)c(Cl)cn2)s1 | – | 131% and 103% (2×) and 113% | 124% and 116% (2×) and 104% | 119% [middle of 4 runs] | 118% [middle of 4 runs] | > 10 µM | – | – | – | – | – | – | – | 104% (2×) and 83.4% and 92.5% | 76.6% [middle of 4 runs] | – |
| NC1c2ccccc2OC12CCN(c1cnc3c(N4CCCc5ncccc54)n[nH]c3n1)CC2 (stereo unspecified) | – | 51.6% [middle of 4 runs] | 45.3% [middle of 4 runs] | 40.2% [middle of 4 runs] | 40% [middle of 4 runs] | 0.29 µM and < 0.0316 µM | – | – | – | – | – | – | – | 36.7% [middle of 4 runs] | 33.8% [middle of 4 runs] | – |
| Nc1ccn(C2OC(CO)C(O)C2(F)F)c(=O)n1 (stereo unspecified) | 91.2% [middle of 4 runs] | 72.5% [middle of 4 runs] | 55% [middle of 4 runs] | 42.9% [middle of 4 runs] | 37.8% [middle of 4 runs] | – | – | – | – | – | – | – | – | – | – | 82.8% [middle of 4 runs] |
| O=C(c1ccc(F)c(F)c1Nc1ccc(I)cc1F)N1CC(O)([C@@H]2CCCCN2)C1 | 98.2% [middle of 4 runs] | 60.7% [middle of 4 runs] | 57% [middle of 4 runs] | 45.2% [middle of 4 runs] | 39.2% [middle of 4 runs] | – | – | – | – | – | – | – | – | – | – | 74.8% [middle of 4 runs] |

From PubChem BioAssay AID2060901 (Molecular Pharmacology Branch, DTP, NCI, 2025)
